Results: US12616716B2, “Wound healing dressings and formulations and methods of use thereof” (Polaroid IP B.V., priority 2023, dated 2026)
In brackets after ≈: the same amount, converted by molar mass. Marks after values point to notes of the source that are not given here.

What was measured:
[1] = test system: mammalian cells (HDF and HaCaT); experiment: Mammalian cell cytotoxicity (LDH and MTS), both cell populations; format: cell-based, human
Method: (§1) Primary Human Dermal Fibroblast (HDFs) and Human Keratinocyte (HaCaT) cells were selected for cytotoxicity and proliferation testing. HDFs were cultured in high glucose, no glutamine, no phenol red, Dulbecco's Modified Eagle Medium (DMEM) (GIBCO™). HDF media was further supplemented with 10% heat-inactivated fetal bovine serum (GIBCO™), 1% L-glutamine (GIBCO™) and 1% Penicillin-streptomycin (GIBCO™). HaCaTs cells were cultured in high glucose, no glutamine, no calcium DMEM (GIBCO™) supplemented with 10% heat inactivated foetal bovine serum, 1% L-glutamine, 1% Penicillin-streptomycin 1 mM calcium chloride (Sigma) throughout.
Mammalian cell populations were maintained in standard culture conditions at 37° C., 5% CO2 and >95% relative humidity. […] Once complete, the pellet of cells was re-suspended in 10 mL warmed culture media and the number of cells per mL was determined using a hemocytometer counting chamber. […]
(§2) The secretion of lactate dehydrogenase (LDH) enzyme was used for quantitatively measuring cell damage and cytotoxicity. As damage to the cell plasma membrane releases LDH into the cell culture media, the extracellular LDH in the media can be quantified by a coupled enzymatic reaction in which LDH catalyzes the conversion of lactate to pyruvate via NAD+ reduction to NADH. […]

[2] = test system: all tested bacteria (Gram-positive and Gram-negative); experiment: MIC / antimicrobial activity over the whole panel of tested bacteria
S. aureus NRS 384 = experiment: Mouse Staphylococcus aureus-induced wound infection model, bacteria load in wound site; conditions: 50 μL/wound site
[3] = test system: Primary Human Dermal Fibroblast (HDFs); experiment: LDH cytotoxicity assay, HDF; format: cell-based; conditions: Table 16, summarized cell toxicity values
Method: as §1
(§3) Mammalian cell populations were maintained in standard culture conditions at 37° C., 5% CO2 and >95% relative humidity. Upon reaching 80% total confluency, cells were removed from the incubator, the culture media aspirated, and the monolayer washed with Dulbecco's […] (DPBS). After washing, 10 mL of 1% trypsin (GIBCO™) was added to the flask and incubated to facilitate the detachment of cells from the culture vessel. Following dissociation, 10 mL of culture media was then added to each flask to neutralize the trypsin enzyme activity. The total 20-mL flask volume was transferred into a universal tube and centrifuged at 400 rcf for 5 minutes. Once complete, the pellet of cells was re-suspended in 10 mL warmed culture media and the number of cells per mL was determined using a hemocytometer counting chamber. Cell suspensions were then adjusted to 5×10^4 cells/mL for HDFs and 1×10^5 cells/mL for HaCaTs. 100 μL of the cell suspension was added to each well of a sterile, cell-culture-treated 96-well microtiter plate. The plates were incubated in standard culture conditions for 16-24 hours to allow cellular adherence to the culture vessel. […] Culture plates were removed from the incubator, the media removed; and monolayers washed with 100 μL of warmed DPBS. The contents of the test item dilution plates were transferred to the culture plates. […]
as §2
(§4) Following incubation with the selected compounds, 50 μL of media from each well was transferred to the corresponding well of a fresh 96 well culture plate. The presence of Lactate dehydrogenase (LDH) was then quantified using the INVITROGEN™ CyQUANT™ LDH Cytotoxicity Assay, fluorescence kit. Total fluorescence was measured by reading the plates on a plate reader at an excitation of 560 nm and an emission of 590 nm. […]

[4] = test system: Human Keratinocyte (HaCaT) cells; experiment: LDH cytotoxicity assay, HaCaT; format: cell-based; conditions: Table 16, summarized cell toxicity values
Method: as §1, §3, §2, §4

[5] = test system: Staphylococcus aureus ATCC 29213; experiment: MIC, broth microdilution in MH broth with resazurin; format: cell-based; conditions: for MIC SA29213: Table 17, modified Gompertz fit, only values marked ^ are reliable estimates, others unreliable
[6] = test system: Staphylococcus aureus MR1; experiment: as above; format: cell-based; conditions: Table 17; modified Gompertz fit; only values marked ^ are reliable estimates, others unreliable
[7] = test system: Enterococcus faecalis EF19433; experiment: as above; format: cell-based; conditions: for MIC EF19433: Table 17, modified Gompertz fit, only values marked ^ are reliable estimates, others unreliable
[8] = test system: Enterococcus faecalis EF51299; experiment: as above; format: cell-based; conditions: for MIC EF51299: Table 17, modified Gompertz fit, only values marked ^ are reliable estimates, others unreliable
[9] = test system: Klebsiella pneumoniae KL1; experiment: as above; format: cell-based; conditions: Table 17; modified Gompertz fit; only values marked ^ are reliable estimates, others unreliable
[10] = test system: Pseudomonas aeruginosa 27853; experiment: as above; format: cell-based; conditions: Table 17; modified Gompertz fit; only values marked ^ are reliable estimates, others unreliable
Escherichia coli EC25922 [11] = experiment: as above; format: cell-based; conditions: Table 17; modified Gompertz fit; only values marked ^ are reliable estimates, others unreliable
[12] = test system: Staphylococcus aureus ATCC 29213; experiment: MBC, spot plating after 24 h in MH broth; conditions: Table 18; —: no activity observed
Method: (§5) To determine MBC compound concentrations breakpoints were estimated from MIC curves. Overnight cultures were set up as described above for all bacterial strains. The following day overnight cultures were adjusted to give a cell density of 5×10^5 cells per mL. Briefly, cultures were adjusted to the McFarland standard (0.08-0.12) and diluted (1:150). Adjusted cultures were inoculated into 96 well plates with 50 μL sterile Muller-Hinton broth (MHB) and 2 concentrations of each compound. […] MBC cultures were quantified by serial dilution in a 96 well plate and spot plating onto Muller-Hinton agar (MHA). MHA plates were incubated at 37° C. for 24 h and counted. Results are presented as CFU per mL.
(§6) To determine MBC compound concentrations, breakpoints were estimated from MIC curves. Overnight cultures were set up as described above for all bacterial strains. The following day overnight cultures were adjusted to give a cell density of 5×10^5 cells per mL. Briefly, cultures were adjusted to the McFarland standard (0.08-0.12) and diluted (1:150). Adjusted cultures were inoculated into 96 well plates with 50 μL sterile Muller-Hinton broth (MHB) and 2 concentrations of each compound. […] MBC cultures were quantified by serial dilution in a 96 well plate and spot plating onto Muller-Hinton agar (MHA). MHA plates were incubated at 37° C. for 24 hours and counted.
(§7) These compounds were tested for their MBC against a panel of ATCC and nosocomial bacteria.

[13] = test system: Staphylococcus aureus MR1; experiment: MBC, spot plating after 24 h in MH broth; conditions: Table 18; —: no activity observed
Method: as §5, §6, §7

[14] = test system: Enterococcus faecalis EF19433; experiment: MBC, spot plating after 24 h in MH broth; conditions: Table 18; —: no activity observed
Method: as §5, §6, §7

Escherichia coli EC25922 [15] = experiment: MBC, spot plating after 24 h in MH broth; conditions: Table 18; —: no activity observed
Method: as §5, §6, §7

[16] = test system: Enterococcus faecalis EF51299; experiment: MBC, spot plating after 24 h in MH broth; conditions: Table 18; —: no activity observed
Method: as §5
(§8) To determine MBC compound concentrations, breakpoints were estimated from MIC curves. Overnight cultures were set up as described above for all bacterial strains. The following day overnight cultures were adjusted to give a cell density of 5×10^5 cells per mL. Briefly, cultures were adjusted to the McFarland standard (0.08-0.12) and diluted (1:150). Adjusted cultures were inoculated into 96 well plates with 50 μL sterile Muller-Hinton broth (MHB) and 2 concentrations of each compound. […] MBC cultures were quantified by serial dilution in a 96 well plate and spot plating onto Muller-Hinton agar (MHA). MHA plates were incubated at 37° C. for 24 hours and counted. […]

[17] = test system: Klebsiella pneumoniae KL1; experiment: MBC, spot plating after 24 h in MH broth; conditions: Table 18; —: no activity observed
Method: as §5, §8

[18] = test system: Staphylococcus aureus NRS384; experiment: MIC, broth microdilution in MH broth with resazurin; format: cell-based; conditions: Table 21 (Example 8); Staphylococcus aureus NRS384; read-out: MIC Concentration

Row | SMILES | Mammalian Cell Cytotoxicity, HDF [3] | Mammalian Cell Cytotoxicity, HaCaT [4] | MIC SA29213 [5] | MIC MR1 [6] | MIC EF19433 [7] | MIC EF51299 [8] | MIC KL1 [9] | MIC PA27853 [10] | MIC EC25922 (Escherichia coli EC25922 [11]) | MBC SA29213 [12] | MBC MR1 [13] | MBC EF19433 [14] | MBC EC25922 (Escherichia coli EC25922 [15]) | further results
1 | CCCCCCCCCCCCCCCCCC[N+](C)(C)CCOCCO.[Br-] [Compound 39637] | – | – | – | – | – | – | – | – | – | – | – | – | – | concentration with almost total/complete absence of viable cells ([1]; HDF and HaCaT): 6.3 µM; concentration at which LDH secretion began to rapidly exceed control levels ([1]; HDF and HaCaT populations): 3.12 µM; antimicrobial activity towards the gram +ve species Enterococcus faecalis and Staphylococcus aureus (in words) [2]: strong antimicrobial activity; Ig(CFU/wound site) 24 h p.i. (S. aureus NRS 384; Study I, 100 μM, once a day): 8.49 ± 0.30 Ig(CFU/wound site); ΔIg(CFU/wound site) vs 12 h infection control (S. aureus NRS 384; Study I, 100 μM, once a day): −0.23 ± 0.06 Ig(CFU/wound site); ΔIg(CFU/wound site) vs 24 h infection control (S. aureus NRS 384; Study I, 100 μM, once a day): −0.29 ± 0.30 Ig(CFU/wound site); Ig(CFU/wound site) 12 h p.i. (S. aureus NRS 384; Study I, 100 μM, once a day from 5 min p.i., inoculum 4.20E+06 CFU/wound site): 8.35 ± 0.06 Ig(CFU/wound site); Ig(CFU/wound site) 24 h p.i. (S. aureus NRS 384; Study II, 300 μM, once a day): 8.90 ± 0.10 Ig(CFU/wound site); ΔIg(CFU/wound site) vs 12 h infection control (S. aureus NRS 384; Study II, 300 μM, once a day): −0.45 ± 0.40 Ig(CFU/wound site); ΔIg(CFU/wound site) vs 24 h infection control (S. aureus NRS 384; Study II, 300 μM, once a day): 0.04 ± 0.10 Ig(CFU/wound site); Ig(CFU/wound site) 12 h p.i. (S. aureus NRS 384; Study II, 300 μM, once a day, inoculum 2.50E+06 CFU/wound site): 8.14 ± 0.40 Ig(CFU/wound site); Ig(CFU/wound site) 12 h p.i. (S. aureus NRS 384; Study II, 1000 μM, once a day): 5.44 ± 0.94 Ig(CFU/wound site); Ig(CFU/wound site) 24 h p.i. (S. aureus NRS 384; Study II, 1000 μM, once a day): 5.81 ± 1.79 Ig(CFU/wound site); ΔIg(CFU/wound site) vs 12 h infection control (S. aureus NRS 384; Study II, 1000 μM, once a day): −3.15 ± 0.94 Ig(CFU/wound site); ΔIg(CFU/wound site) vs 24 h infection control (S. aureus NRS 384; Study II, 1000 μM, once a day): −3.06+1.79** Ig(CFU/wound site)
2 | CCCCCCCCCCCCCCCCCC[N+](C)(C)CCOCCO.[Br-] [Compound 39637_105543] | 6.3 µM | 6.3 µM | 3.16 µM | 10.58^ μM | 3.20^ μM | 62.65^ μM | +infinity | 53.54 µM | 42.96 µM | 1.57 µM | 6.25 µM | 1.57 µM | 25 µM | –
3 | CCCCCCCCCCCCCCCCCC[N+](C)(C)CCOCCO.[Br-] [Compound 39637_109466] | 6.3 µM | 6.3 µM | 3.05 µM | 10.78^ μM | 2.59^ μM | 16.81^ μM | 2.06 µM | 62.14^ μM | 59.94 µM | 1.57 µM | 6.25 µM | 1.57 µM | 25 µM | MBC EF51299 [16]: 1.57 µM; MBC KL1 [17]: 50 µM
4 | CCCCCCCCCCCC[N+](C)(C)CCOCCO.[Br-] [Compound 40597_109444] | 100 µM | 100 µM | – | 0.94 µM | 1.63^ μM | 27.19^ μM | 0.01 µM | 2.84 µM | – | – | – | – | – | –
5 | CCCCCC[N+](C)(C)CCOCCO.[Br-] [Compound 40598_109448] | >100 µM | >100 µM | 1.93 µM | – | Unstable | – | 48.98 µM | 0.06 µM | 0.83 µM | – | – | – | – | –
6 | CC(=O)O[C@H]1C[C@@]2(C)[C@@H](C[C@@H](O)[C@H]3[C@@]4(C)CC[C@@H](O)[C@@H](C)[C@@H]4CC[C@@]32C)/C1=C(\CCC=C(C)C)C(=O)O [fusidic acid] | – | – | – | – | – | – | – | – | – | – | – | – | – | MIC ([5]; ATCC29213, Table 21 (Example 8), Staphylococcus aureus 29213, read-out: MIC Concentration): 0.04 µM (≈ 0.0207 µg/mL); MIC [18]: 0.04 µM (≈ 0.0207 µg/mL); MIC ([7]; Table 21 (Example 8), Enterococcus faecalis EF19433, read-out: MIC Concentration): 5 µM (≈ 2.58 µg/mL); MIC ([8]; Table 21 (Example 8), Enterococcus faecalis EF51299, read-out: MIC Concentration): 5 µM (≈ 2.58 µg/mL)
